In experiment [1] the test system is Ratten. As to the kind of experiment: Mean arterial blood pressure in pentobarbital-anaesthetised rats, 10 min i.v. infusion as lipid emulsion. It is filed as in vivo. To be noted: mean arterial pressure in % of baseline, mean of 4 rats. As to the method: So wurde an durch intraperitoneale Injektion von 60 mg/kg Natriumpentobarbital narkotisierten Ratten über einen Carotis-Katheter mit Hilfe eines Druckübermittlers der Blutdruck überwacht. Den Tieren (in Gruppen von je 4 Tieren) wurden dann für jeweils 10 Minuten über einen in die rechte vena femoralis eingesetzten Katheter • 1) 10,0 µg/kg/min der Verbindung A (R₁ = H) • 2) 9,6 µg/kg/min der Verbindung B (R₁ = H) • 3) 6,2 µg/kg/min des Esters der Formel I (X = 0) bzw. • 4) 10,5 µg/kg/min des Esters der Formel I (X = CH₂) injiziert, wobei diese Verbindungen in Form einer Lipidemulsion (vgl. Mizushima et al. J. Pharm. Pharmacol. 34 (1982) 49 - 50 und Ann. Rheum. Dis. 41 (1982) 263 - 267) zur Anwendung kamen. Dabei ergaben sich fol gende Werte des mittleren arteriellen Blutdrucks (in % des Ausgangswertes; jeweils als Mittelwert für die Tiere einer Gruppe): […]

Experiment [2] relates to ADP-induzierten Thrombozytenaggregation. As to the kind of experiment: ADP-induced platelet aggregation (platelet count fall) in the urethane-anaesthetised rat after oral dosing. The format is in vivo, Ratte. To be noted: 100 µg/kg ADP i.v. bolus. As to the method: Zur Bestimmung der ADP-induzierten Thrombozytenaggregation an der Urethan-narkotisierten Ratte nach oraler Gabe der Vergleichssubstanzen wurde den Tieren ein Carotis-Katheter eingesetzt und über diesen kontinuierlich Blut entnommen. Nach Zumischen von Natriumzitrat wurde in einem Technicon-Thrombocounter die Thrombozytenzahl bestimmt. 15 Minuten und unmittelbar vor der Gabe der Prüfsubstanz sowie 15, 30, 45 und 60 min. nach der Prüfsubstanzgabe wurden über die vena jugularis jeweils 100 µg/kg ADP als Bolus injiziert und der Thrombozytenabfall unter der ADP-Injektion bestimmt. Der Mittelwert der beiden Werte vor der Prüfsubstanzgabe wurde als Ausgangs-Kontrollwert genommen und die Werte nach Prüfsubstanzgabe als %-Änderung gegenüber diesem Wert bestimmt.

The subject of experiment [3] is menschlichen Blutplättchen. To be noted: aggregation induced by various agents; compared with natural Prostacyclin; cited from earlier work.
Experiment [4] relates to durch ADP induzierten Blutplättchenaggregation. Particulars: rat plasma; in % of the effect of the free acid; cited from earlier work.
Experiment [5] concerns Hunden. To be noted: dogs; potency in % of the free acid; cited from earlier work.
[6] abbreviates: 15 min after oral dose of 10 mg/kg.
The mark [7] stands for this setting: 30 min after oral dose of 10 mg/kg.
Setting [8] is: 45 min after oral dose of 10 mg/kg.
[9] abbreviates: 60 min after oral dose of 10 mg/kg.

`O=C(O)c1cccc(/C=C2/C[C@@H]3[C@@H](/C=C/[C@@H](O)C4CCCCC4)[C@H](O)C[C@@H]3O2)c1` (relative stereo) [A (R₁ = H), 2-Oxa-3Z-(m-carboxybenzyliden)-6β-(3′-S-hydroxy-3′cyclohexyl-1′E-propenyl)-7α-hydroxy-cis-bicyclo[3.3.0] octan, reference compound]: the “Relativer Blutdruck (%) Minuten nach Injektionsbeginn” value in experiment [1] (5 min, 10,0 µg/kg/min i.v. for 10 min) stood at 64%; in experiment [1] (10 min, 10,0 µg/kg/min i.v. for 10 min), 65%; in experiment [1] (20 min, 10,0 µg/kg/min i.v. for 10 min) it was 94%.

For the molecule `O=C(O)c1cccc(/C=C2\C[C@H]3C[C@@H](O)[C@H](/C=C/[C@@H](O)C4CCCCC4)[C@H]3C2)c1` (relative stereo) [B(R₁=H), 3E-(m-Carboxybenzyliden)-6β-(3′S-hydroxy-3′-cyclohexyl-1′E-propenyl)-7α-hydroxy-cis-bicyclo-[3.3.0]octan, reference compound], the “Relativer Blutdruck (%) Minuten nach Injektionsbeginn” value in experiment [1] (5 min, 9,6 µg/kg/min i.v. for 10 min) came out at 80%; in experiment [1] (10 min, 9,6 µg/kg/min i.v. for 10 min), 84%; in experiment [1] (20 min, 9,6 µg/kg/min i.v. for 10 min) it was 105%. Also, the “Thrombozytenaggregationshemmung in % des Ausgangskontrollwertes nach Minuten” value in experiment [2] (setting [6]) is 68,9±6,8%; in experiment [2] (setting [7]), 55,1±6,7%; in experiment [2] (setting [8]), 51,8±6,4%; in experiment [2] (setting [9]), 38,1±6,3%.

In the case of `CCCCCC(O)C#CC1C(O)CC2OC(=CCCCC(=O)OC)CC21` (stereo not drawn) [13,14-Dehydroprostacyclinmethylester], in experiment [3], the “Aggregationshemmung von menschlichen Blutplättchen” value is “ähnlich wirksam”.

As for `CC(C)(C)C(=O)OCOC(=O)c1cccc(/C=C2/C[C@@H]3[C@@H](/C=C/[C@@H](O)C4CCCCC4)[C@H](O)C[C@@H]3O2)c1` [I (X = 0), 2-Oxa-3Z-(m-pivaloyloxymethyloxycarbonyl-benzyliden)-6β-(3′S-hydroxy-3′-cyclohexyl-1′E-propenyl)-7α-hydroxy-cis-bicyclo[3.3.0]octan], the “Relativer Blutdruck (%) Minuten nach Injektionsbeginn” value is reported as 58% in experiment [1] (5 min, 6,2 µg/kg/min i.v. for 10 min); 62% in experiment [1] (10 min, 6,2 µg/kg/min i.v. for 10 min); 81% in experiment [1] (20 min, 6,2 µg/kg/min i.v. for 10 min).

In the case of `CC(C)(C)C(=O)OCOC(=O)c1cccc(/C=C2\C[C@H]3C[C@@H](O)[C@H](/C=C/[C@@H](O)C4CCCCC4)[C@H]3C2)c1` [I(X=CH₂), 3E-(m-Pivaloyloxymethyloxycarbonyl-benzyliden)-6β-(3′S-hydroxy-3′-cyclohexyl-1′E-propenyl)-7α hydroxy-cis-bicyclo[3.3.0]octan], the “Relativer Blutdruck (%) Minuten nach Injektionsbeginn” value in experiment [1] (5 min, 10,5 µg/kg/min i.v. for 10 min) worked out at 62%; in experiment [1] (10 min, 10,5 µg/kg/min i.v. for 10 min), 51%; in experiment [1] (20 min, 10,5 µg/kg/min i.v. for 10 min) it was 69%. The “Thrombozytenaggregationshemmung in % des Ausgangskontrollwertes nach Minuten” value in experiment [2] (setting [6]) was 24,0±3,0%; in experiment [2] (15 min after oral dose of 100 mg/kg), 59,4±3,0%; in experiment [2] (setting [7]), 28,1±3,8%; in experiment [2] (30 min after oral dose of 100 mg/kg) it was 63,3±6,8%; in experiment [2] (setting [8]), 29,1±3,9%; in experiment [2] (45 min after oral dose of 100 mg/kg), 68,1±2,0%. The “Thrombozytenaggregationshemmung in % des Ausgangskontrollwertes nach Minuten” value in experiment [2] (setting [9]) is listed as 30,3±4,6%; in experiment [2] (60 min after oral dose of 100 mg/kg), 71,0±4,4%.

Consider `CCCCCC(O)/C=C/C1C(O)CC2CC(=CCCCC(=O)OC)CC21` (stereo not drawn) [Methylester der (5EZ,13E)(9α,11α,15α)-6,9-methano-11,15-dihydroxyprosta-5,13-diensäure], for which the “Hemmung der durch ADP induzierten Blutplättchenaggregation, Wirkung relativ zur freien Säure” value in experiment [4] is given as about 80%. For the same molecule, the “Wirkung auf den Blutdruck, relativ zur freien Säure” value in experiment [5] is on record as 50 - 60%.

Source of the values: patent EP0396024A2, “Esters, medicaments containing them and preparation of these esters and medicaments” (Grünenthal GmbH, priority 1989, dated 1990).
